Measured values as given in patent publication US8969554B2, “6-acyl-1,2,4-triazine-3,5-dione derivative and herbicides” (Kumiai Chemical Industry Co., Ltd., priority 2010, dated 2015).

Key:
Type in all cases: in vivo
Parameters in all cases: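 index 0 to 10 in 10% steps of herbicidal effect with 10 meaning complete death and 0 below 10%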
[1] = test system: Echinochloa crus-galli; experiment: Herbicidal activity by field soil treatment (Test example 2); settings: 1000 g effective component per hectare, day 21 after the treatment
Experimental: (§1) [table] Test for Determining Herbicidal Activity by Field Soil Treatment A 80 cm^2 wide plastic pot was filled with a field soil and seeds of each of Echinochloa crus-galli, foxtail, Indian millet, and A. retroflexus were sowed and then covered with soil. The wettable powder produced with reference to the Formulation example 1 was diluted water, and applied on the soil surface by using a small sprayer in an amount of 1000 liters per hectare so that the effective component is 1000 g per hectare. After that, the plants were cultivated in a greenhouse, and on day 21 after the treatment, evaluation was made by the criteria described in Table 72 for determining the herbicidal effects.

[2] = test system: Indian millet; experiment: as above; settings: 1000 g effective component per hectare, day 21 after the treatment
Experimental: as §1

[3] = test system: A. retroflexus; experiment: as above; settings: 1000 g effective component per hectare, day 21 after the treatment
Experimental: as §1

[4] = test system: Monochoria vaginalis; experiment: Herbicidal activity by paddy field soil treatment (Test Example 1); settings: 1000 g of effective component per hectare, evaluated on day 21 after the treatment, criteria of Table 72
Experimental: (§2) Test for Determining Herbicidal Activity by Paddy Field Soil Treatment A 100 cm^2 wide plastic pot was filled with a paddy field soil and, after watering and shuffling, seeds of each of Echinochloa oryzicola, Monochoria vaginalis, and Scirpus juncoides Rocxb. were sowed and watered to a depth of 3 cm. On the next day, the wettable powder obtained in view of Formulation example 1 was diluted with water and applied on water surface. The application amount was 1000 g of effective component per hectare. After that, the plants were cultivated in a greenhouse, and on day 21 after the treatment, evaluation was made by the criteria of Table 72 for determining the herbicidal effects. [table]

[5] = test system: Scirpus juncoides Rocxb.; experiment: as above; settings: applied on water surface, 1000 g of effective component per hectare, day 21 after the treatment
Experimental: as §2

[6] = test system: Echinochloa oryzicola; experiment: as above; settings: 1000 g of effective component per hectare, evaluated on day 21 after the treatment, criteria of Table 72
Experimental: as §2

[7] = test system: Indian millet; experiment: Herbicidal activity by field foliage treatment (Test example 3); settings: 1000 g effective component per hectare, day 14 after the treatment
Experimental: (§3) [table] Test for Determining Herbicidal Activity by Field Foliage Treatment A 80 cm^2 wide plastic pot was filled with a field soil and seeds of each of Indian millet and A. retroflexus were sowed and then incubated for 2 weeks in a green house. The wettable powder produced with reference to the Formulation example 1 was diluted water, and applied from the air to entire body of the plant as foliage treatment by using a small sprayer in an amount of 1000 liters per hectare so that the effective component is 1000 g per hectare. After that, the plants were cultivated in a greenhouse, and on day 14 after the treatment, evaluation was made by the criteria described in Table 72 for determining the herbicidal effects.

[8] = test system: A. retroflexus; experiment: as above; settings: 1000 g effective component per hectare, day 14 after the treatment
Experimental: as §3

[9] = test system: Echinochloa crus-galli; experiment: as above; settings: 1000 g effective component per hectare, day 14 after the treatment
Experimental: as §3, with “Test example 3” for “[table]”

Row | SMILES | herbicidal effect index, Echinochloa crus-galli [1] | herbicidal effect index, Abutilon theophrasti [2] | herbicidal effect index, Amaranthus retroflexus [3] | Herbicidal effects index number, Monochoria vaginalis [4] | herbicidal effect index, S. juncoides Rocxb. [5] | Herbicidal effects index number, Echinochloa oryzicola [6] | herbicidal effect index, Abutilon theophrasti [7] | herbicidal effect index, Amaranthus retroflexus [8] | herbicidal effect index, Echinochloa crus-galli [9]
1 | Cc1cc(C)cc(-n2c(=O)c(C(=O)C3=C(O)CCCC3=O)nn(C)c2=O)c1 [I-88] | 8 | 10 | 10 | 10 | 10 | 10 | 9 | 10 | 8
2 | Cc1cc(F)cc(-n2c(=O)c(C(=O)C3=C(O)CCCC3=O)nn(C)c2=O)c1 [I-106] | 10 | 10 | 10 | 10 | 10 | 10 | 9 | 10 | 10
3 | Cc1cccc(-n2c(=O)c(C(=O)C3=C(O)CCCC3=O)nn(C)c2=O)c1F [I-107] | 8 | 10 | 10 | 10 | 10 | 10 | 9 | 10 | 7
4 | Cc1cccc(F)c1-n1c(=O)c(C(=O)C2=C(O)CCCC2=O)nn(C)c1=O [I-110] | 7 | 10 | 10 | 10 | 10 | 10 | 9 | 9 | 9
5 | Cc1cc(-n2c(=O)c(C(=O)C3=C(O)CCCC3=O)nn(C)c2=O)ccc1F [I-115] | 9 | 9 | 9 | 10 | 10 | 10 | 10 | 10 | 10
6 | COc1ccc(-n2c(=O)c(C(=O)C3=C(O)CCCC3=O)nn(C)c2=O)cc1Cl [I-119] | 8 | 9 | 10 | 10 | 10 | 9 | 9 | 10 | 9
7 | COc1cc(Cl)cc(-n2c(=O)c(C(=O)C3=C(O)CCCC3=O)nn(C)c2=O)c1 [I-120] | 8 | 9 | 10 | 10 | 10 | 8 | 9 | 10 | 9
8 | Cc1ccc(-n2c(=O)c(C(=O)C3=C(O)CCCC3=O)nn(C)c2=O)cc1Cl [I-125] | 7 | 8 | 10 | 10 | 10 | 10 | 10 | 10 | 10
9 | Cc1cc(-n2c(=O)c(C(=O)C3=C(O)CCCC3=O)nn(C)c2=O)ccc1Cl [I-135] | 9 | 9 | 10 | 10 | 10 | 10 | 10 | 10 | 10
10 | COc1ccc(-n2c(=O)c(C(=O)C3=C(O)CCCC3=O)nn(C)c2=O)cc1C [I-149] | 8 | 10 | 10 | 10 | 10 | 9 | 10 | 10 | 8
11 | Cn1nc(C(=O)C2=C(O)CCCC2=O)c(=O)n(-c2cccs2)c1=O [I-198] | 7 | 10 | 10 | 10 | 10 | 8 | 10 | 10 | 10
12 | CCn1nc(C(=O)C2=C(O)CCCC2=O)c(=O)n(-c2ccccc2)c1=O [I-259] | 10 | 8 | 10 | 10 | 10 | 10 | 10 | 10 | 10
13 | COc1cc(OC)nc(-n2c(=O)c(C(=O)C3=C(O)CCCC3=O)nn(C)c2=O)n1 [I-273] | 9 | 7 | 10 | 9 | 10 | 9 | 9 | 10 | 10
14 | Cc1cccc(-n2c(=O)c(C(=O)C3=C(O)CCCC3=O)nn(C)c2=O)n1 [I-279] | 7 | 10 | 10 | 8 | 10 | 8 | 10 | 10 | 9
15 | COc1ccc(-n2c(=O)c(C(=O)C3=C(O)CCCC3=O)nn(C)c2=O)cn1 [I-287] | 10 | 9 | 10 | 10 | 10 | 10 | 9 | 10 | 8
